Test results published in US20190023738A1, “THERAPEUTIC COMPOSITIONS INCLUDING PHENAZINE-3-ONE AND PHENOTHIAZINE-3-ONE DERIVATIVES AND USES THEREOF” (Stealth BioTherapeutics Corp, priority 2015, published 2019).

Assays:
[1] = system: neonatal cardiomyocytes; assay: Mitosox mitochondrial superoxide in Angiotensin II-stimulated neonatal cardiomyocytes (flow cytometry); assay type: cell-based, mouse; details: NAC 0.5 mM, Angiotensin II 1 μM for 3 hours, Mitosox fluorescence
Protocol: Ventricles from mouse neonates younger than 72 hours will be dissected, minced, and enzymatically digested with Blendzyme 4 (45 mg/mL, Roche). After enzymatic digestion, cardiomyocytes will be enriched using differential pre-plating for 2 hours, and seeded on fibronectin-coated culture dishes for 24 hours in DMEM (Gibco) with 20% Fetal Bovine Serum (Sigma) and 25 μM Arabinosylcytosine (Sigma). Cardiomyocytes will be stimulated with Angiotensin II (1 μM) for 3 hours in serum-free DMEM containing 0.5% insulin transferrin-selenium (Sigma), 2 mM glutamine, and 1 mg/mL BSA. […] Samples will be analyzed using excitation/emission of 488/625 nm by flow cytometry. Flow data will be analyzed using FCS Express (De Novo Software, Los Angeles, Calif., U.S.A.), and presented as histogram distributions of Mitosox fluorescence intensity.

[2] = system: several mammalian cell types; details: cited from earlier work

Compound	effect on the level of mitochondrial ROS after Ang II [1]	penetration of the plasma membrane [2]
CC(=O)N[C@@H](CS)C(=O)O [N-acetyl cysteine]	not show any effect	
2′,6′-Dmt-D-Arg-Phe-Lys-NH2		readily penetrates the plasma membrane of several mammalian cell types in an energy-independent manner
